Literature values, collected in patent US20130225560A1, “Treatment of Cognitive Disorders with Certain Alpha-7 Nicotinic Acid Receptor Agonists in Combination with Acetylcholinesterase Inhibitors” (priority 2010, published 2013).

How the values were obtained:
[1] = system: murine model that exhibits aspects of schizophrenia; details: alone and in combination with clozapine; Hauser et al. 2009
[2] = system: other nicotinic receptors
alpha-7 receptor [3] = biological target: T1, alpha-7 receptor (Homo sapiens, UniProt P36544)
T1 sequence (P36544 23-502): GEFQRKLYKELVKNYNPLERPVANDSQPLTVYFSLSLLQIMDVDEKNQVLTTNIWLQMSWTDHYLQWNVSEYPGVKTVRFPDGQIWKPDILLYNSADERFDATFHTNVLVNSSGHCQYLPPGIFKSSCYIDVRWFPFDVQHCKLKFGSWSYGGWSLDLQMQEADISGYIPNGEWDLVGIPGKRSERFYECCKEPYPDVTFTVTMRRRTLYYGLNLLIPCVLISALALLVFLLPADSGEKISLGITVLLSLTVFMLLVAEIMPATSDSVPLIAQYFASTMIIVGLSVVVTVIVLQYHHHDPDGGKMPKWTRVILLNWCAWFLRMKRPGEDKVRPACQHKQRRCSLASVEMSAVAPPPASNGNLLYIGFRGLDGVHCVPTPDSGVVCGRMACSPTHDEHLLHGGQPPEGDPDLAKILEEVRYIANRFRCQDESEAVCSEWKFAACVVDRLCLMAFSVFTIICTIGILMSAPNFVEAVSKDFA

alpha-7 receptor [4] = biological target: T1, alpha-7 receptor; remark: listed apart in the source

SMILES: O=C(NC1C2CCN(CC2)C1Cc1cccnc1)c1cc2ccccc2o1 (centres unmarked) [TC-5619, N-[2-(pyridin-3-ylmethyl)-1-azabicyclo[2.2.2]oct-3-yl]-1-benzofuran-2-carboxamide]
- impaired pre-pulse inhibition (PPI), models positive symptoms [1]: correct impaired pre-pulse inhibition (PPI)
- impaired social behavior, models negative symptoms [1]: correct impaired pre-pulse inhibition (PPI) and social behavior
- activity at other nicotinic receptors [2]: little or no activity
- agonist activity at the alpha-7 receptor (alpha-7 receptor [3]): full agonist
- affinity for the alpha-7 receptor (alpha-7 receptor [4]): very high affinity
